In ChEMBL document CHEMBL1909046, “DrugMatrix in vitro pharmacology data”:

Legend:
[1] = biological target: T1, Alpha-2C adrenergic receptor (Homo sapiens, UniProt P18825); experiment: DRUGMATRIX: Adrenergic Alpha-2C radioligand binding (ligand: [3H] MK-912); format: cell membranes, Sf9, Membrane; conditions: sf9
T1 sequence (P18825 whole entry): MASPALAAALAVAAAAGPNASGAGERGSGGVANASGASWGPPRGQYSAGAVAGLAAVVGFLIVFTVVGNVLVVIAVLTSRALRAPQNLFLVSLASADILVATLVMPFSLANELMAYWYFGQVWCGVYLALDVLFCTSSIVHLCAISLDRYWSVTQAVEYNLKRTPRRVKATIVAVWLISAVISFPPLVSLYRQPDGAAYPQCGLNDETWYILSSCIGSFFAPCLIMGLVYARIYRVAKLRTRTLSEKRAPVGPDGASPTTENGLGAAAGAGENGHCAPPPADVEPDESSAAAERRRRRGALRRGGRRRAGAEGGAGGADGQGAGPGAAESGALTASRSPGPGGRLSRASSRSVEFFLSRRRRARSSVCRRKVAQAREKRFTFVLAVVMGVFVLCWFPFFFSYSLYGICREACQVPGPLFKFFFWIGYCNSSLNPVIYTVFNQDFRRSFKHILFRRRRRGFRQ

B2 bradykinin receptor = biological target: T2, B2 bradykinin receptor (Homo sapiens, UniProt P30411); format: cell membranes, Membrane; conditions: chem-1; further: in other assays of this panel Not Active means under 50% inhibition at 10 µM
T2 sequence (P30411 whole entry): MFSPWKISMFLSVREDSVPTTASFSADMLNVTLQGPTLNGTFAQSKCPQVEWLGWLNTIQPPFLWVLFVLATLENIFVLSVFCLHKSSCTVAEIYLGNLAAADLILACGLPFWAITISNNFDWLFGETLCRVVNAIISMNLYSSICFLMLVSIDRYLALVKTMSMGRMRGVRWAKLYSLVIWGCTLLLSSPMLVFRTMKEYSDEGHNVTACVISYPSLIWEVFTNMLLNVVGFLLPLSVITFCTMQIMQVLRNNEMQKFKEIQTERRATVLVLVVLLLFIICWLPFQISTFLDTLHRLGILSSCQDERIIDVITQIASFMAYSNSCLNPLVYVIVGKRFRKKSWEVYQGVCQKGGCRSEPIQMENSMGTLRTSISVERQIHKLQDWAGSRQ

Adenosine receptor A1 = biological target: T3, Adenosine receptor A1 (Homo sapiens, UniProt P30542); format: cell membranes, CHO, Membrane; conditions: cho;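 further: radioligand binding assay at the adenosine A1 receptor, with DPCPX serving as the labelled ligand; in other assays of this panel Not Active means under 50% inhibition at 10 µM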
T3 sequence (P30542 whole entry): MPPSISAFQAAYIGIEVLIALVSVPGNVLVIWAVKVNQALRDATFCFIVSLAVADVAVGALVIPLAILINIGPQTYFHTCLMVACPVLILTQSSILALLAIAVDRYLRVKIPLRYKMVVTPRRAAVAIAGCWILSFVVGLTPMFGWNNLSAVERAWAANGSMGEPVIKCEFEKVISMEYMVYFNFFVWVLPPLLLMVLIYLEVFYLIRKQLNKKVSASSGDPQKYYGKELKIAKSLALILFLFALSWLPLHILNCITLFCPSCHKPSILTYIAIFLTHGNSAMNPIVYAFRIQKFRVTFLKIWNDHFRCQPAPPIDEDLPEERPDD

[2] = biological target: Sodium-dependent dopamine transporter (Homo sapiens, UniProt Q01959); experiment: DRUGMATRIX: Dopamine Transporter radioligand binding (ligand: [125I] RTI-55); format: cell membranes, CHO-K1, Membrane; conditions: cho-k1; Not Active = under 50% inhibition at 10 µM
Cytochrome P450 2E1 = Cytochrome P450 2E1 (Homo sapiens, UniProt P05181); conditions: bti-tn-5b1-4; further: in other assays of this panel Not Active means under 50% inhibition at 10 µM
[3] = biological target: cGMP-specific 3',5'-cyclic phosphodiesterase (Homo sapiens, UniProt O76074); experiment: DRUGMATRIX: Phosphodiesterase PDE5 enzyme inhibition (substrate: [3H]cGMP + cGMP); format: tissue-based, Platelet; conditions: platelet; Not Active = under 50% inhibition at 10 µM

Chain of Sodium-dependent dopamine transporter (Q01959 whole entry): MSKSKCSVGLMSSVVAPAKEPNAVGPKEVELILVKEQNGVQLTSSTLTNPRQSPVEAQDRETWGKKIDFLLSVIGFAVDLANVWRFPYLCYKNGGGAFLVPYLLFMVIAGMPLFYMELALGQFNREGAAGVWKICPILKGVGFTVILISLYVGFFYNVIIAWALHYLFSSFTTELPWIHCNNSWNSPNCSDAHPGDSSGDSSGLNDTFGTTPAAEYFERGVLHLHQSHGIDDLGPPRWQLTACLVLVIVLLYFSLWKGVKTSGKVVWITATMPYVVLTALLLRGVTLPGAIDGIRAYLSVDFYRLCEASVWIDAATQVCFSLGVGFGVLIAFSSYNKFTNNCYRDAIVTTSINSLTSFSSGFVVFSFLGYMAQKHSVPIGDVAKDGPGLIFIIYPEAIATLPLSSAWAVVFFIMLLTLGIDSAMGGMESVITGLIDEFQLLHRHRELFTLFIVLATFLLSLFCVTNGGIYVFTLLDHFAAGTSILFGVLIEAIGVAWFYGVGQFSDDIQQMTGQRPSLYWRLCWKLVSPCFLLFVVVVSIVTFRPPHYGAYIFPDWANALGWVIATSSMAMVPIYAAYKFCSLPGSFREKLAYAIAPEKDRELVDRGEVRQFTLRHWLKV
Chain of Cytochrome P450 2E1 (P05181 whole entry): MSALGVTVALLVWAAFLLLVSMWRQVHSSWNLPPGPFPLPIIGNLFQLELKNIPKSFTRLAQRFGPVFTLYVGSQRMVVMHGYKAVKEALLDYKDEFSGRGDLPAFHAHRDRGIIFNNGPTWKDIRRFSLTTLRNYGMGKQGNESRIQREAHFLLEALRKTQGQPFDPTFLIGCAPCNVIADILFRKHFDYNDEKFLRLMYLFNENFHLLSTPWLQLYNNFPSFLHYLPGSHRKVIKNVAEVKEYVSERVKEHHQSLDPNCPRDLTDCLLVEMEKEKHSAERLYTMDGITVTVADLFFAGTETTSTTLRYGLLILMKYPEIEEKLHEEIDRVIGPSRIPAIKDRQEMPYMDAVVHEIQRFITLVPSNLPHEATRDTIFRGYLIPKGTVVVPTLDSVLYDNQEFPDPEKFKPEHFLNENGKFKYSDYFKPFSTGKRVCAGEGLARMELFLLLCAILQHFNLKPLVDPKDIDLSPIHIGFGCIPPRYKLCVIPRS

CC(=O)[C@H]1[C@H](C#N)C[C@H]2[C@@H]3CC=C4C[C@@H](O)CC[C@]4(C)[C@H]3CC[C@@]21C [PREGNENOLONE CARBONITRILE]
Not Active: IC50 [1] | IC50 (B2 bradykinin receptor) | IC50 (Adenosine receptor A1) | IC50 [2] | IC50 (Cytochrome P450 2E1) | Ki (Cytochrome P450 2E1) | IC50 [3]

CCCN(CCC)S(=O)(=O)c1ccc(C(=O)O)cc1 [PROBENECID]
Not Active: IC50 [1] | IC50 (B2 bradykinin receptor) | IC50 (Adenosine receptor A1) | IC50 [2] | IC50 (Cytochrome P450 2E1) | Ki (Cytochrome P450 2E1) | IC50 [3]

CCCOc1ccc(C(=O)OCCN(CC)CC)cc1N [PROPARACAINE]
Not Active: IC50 [1] | IC50 (B2 bradykinin receptor) | IC50 (Adenosine receptor A1) | IC50 [2] | IC50 (Cytochrome P450 2E1) | Ki (Cytochrome P450 2E1) | IC50 [3]

C[C@@H]1O[C@@H](O[C@@H]2C=C3CC[C@@H]4[C@H](CC[C@]5(C)[C@@H](c6ccc(=O)oc6)CC[C@]45O)[C@@]3(C)CC2)[C@H](O)[C@H](O)[C@H]1O [PROSCILLARIDIN]
Not Active: IC50 [1] | IC50 (B2 bradykinin receptor) | IC50 (Adenosine receptor A1) | IC50 [2] | IC50 (Cytochrome P450 2E1) | Ki (Cytochrome P450 2E1) | IC50 [3]

Oc1cccc(O)c1O [PYROGALLOL]
Not Active: IC50 [1] | IC50 (B2 bradykinin receptor) | IC50 (Adenosine receptor A1) | IC50 [2] | IC50 (Cytochrome P450 2E1) | Ki (Cytochrome P450 2E1) | IC50 [3]

AURANOFIN
Not Active: IC50 [1] | Ki [1] | IC50 (B2 bradykinin receptor) | Ki (B2 bradykinin receptor) | IC50 (Adenosine receptor A1) | Ki (Adenosine receptor A1) | IC50 [2] | Ki [2] | IC50 (Cytochrome P450 2E1) | Ki (Cytochrome P450 2E1) | IC50 [3] | Ki [3]

GADOPENTETATE DIMEGLUMINE
Not Active: IC50 [1] | Ki [1] | IC50 (B2 bradykinin receptor) | Ki (B2 bradykinin receptor) | IC50 (Adenosine receptor A1) | Ki (Adenosine receptor A1) | IC50 [2] | Ki [2] | IC50 (Cytochrome P450 2E1) | Ki (Cytochrome P450 2E1) | IC50 [3] | Ki [3]

GENTAMICIN
Not Active: IC50 [1] | Ki [1] | IC50 (B2 bradykinin receptor) | Ki (B2 bradykinin receptor) | IC50 (Adenosine receptor A1) | Ki (Adenosine receptor A1) | IC50 [2] | Ki [2] | IC50 (Cytochrome P450 2E1) | Ki (Cytochrome P450 2E1) | IC50 [3] | Ki [3]

GRAMICIDIN
Not Active: IC50 [1] | Ki [1] | IC50 (B2 bradykinin receptor) | Ki (B2 bradykinin receptor) | IC50 (Adenosine receptor A1) | Ki (Adenosine receptor A1) | IC50 [2] | Ki [2] | IC50 (Cytochrome P450 2E1) | Ki (Cytochrome P450 2E1) | IC50 [3] | Ki [3]

NYSTATIN
Not Active: IC50 [1] | Ki [1] | IC50 (B2 bradykinin receptor) | Ki (B2 bradykinin receptor) | IC50 (Adenosine receptor A1) | Ki (Adenosine receptor A1) | IC50 [2] | Ki [2] | IC50 (Cytochrome P450 2E1) | Ki (Cytochrome P450 2E1) | IC50 [3] | Ki [3]
